AKR1A1/AKR1B1 selectivity data for one compound are collected here from patent US12098135B2, “Aldoketo reductase inhibitors and uses thereof” (CASE WESTERN RESERVE UNIVERSITY, priority 2018, dated 2024).

For the experiment, the target named is T1, AKR1A1 (Homo sapiens, UniProt P14550).
T1 sequence (P14550 1-325): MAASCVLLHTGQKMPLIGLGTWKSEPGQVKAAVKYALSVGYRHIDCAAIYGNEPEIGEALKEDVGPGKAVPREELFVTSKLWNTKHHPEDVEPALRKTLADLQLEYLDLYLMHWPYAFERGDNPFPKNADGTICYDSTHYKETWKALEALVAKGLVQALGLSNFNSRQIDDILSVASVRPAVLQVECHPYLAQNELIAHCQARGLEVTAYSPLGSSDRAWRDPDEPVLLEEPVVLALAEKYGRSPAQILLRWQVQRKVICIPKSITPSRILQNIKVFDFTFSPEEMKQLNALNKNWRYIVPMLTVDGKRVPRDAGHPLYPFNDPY
Kind of experiment: AKR activity measured using S-nitroso-Coenzyme A (SNO-CoA) as a substrate; selectivity for AKR1A1 versus AKR1B1. In kind it is biochemical. The text has this: In some embodiments, the selectivity of the AKR inhibitor for AKR1A1 inhibition versus other AKRs, such as AKR1B1, can be measured using S-nitroso-Coenzyme A (SNO-CoA) as a substrate. In this instance where SNO-CoA is used as a substrate to measure AKR activity, the AKR inhibitor can have a selectivity for AKR1A1 versus AKR1B1 of ≥1 time, ≥2 times, ≥5 times, ≥10 times, ≥20 times, ≥30 times, ≥40 times, ≥50 times or more. By way of example, JSD-26-1, which is described in the example below, has an AKR1A1/AKR1B1 selectivity of at least 9. In some embodiments, the AKR inhibitor can have negligible inhibition of AKR1B1 activity of SNO-CoA, and particularly compared to AKR1A1 activity.

On to `O=C1NC(=O)C2(N1)c1ccccc1-c1ccc(C3CC3)cc12` (stereo not shown) [JSD-26-1], for which the AKR1A1/AKR1B1 selectivity result is on record as “at least 9”.
